Test results published in patent US20180289689A1, “USE OF CCR5 ANTAGONISTS ALONE OR IN COMBINATION THERAPY FOR THE TREATMENT OF CANCER” (RUPRECHT-KARLS-UNIVERSITÄT HEIDELBERG, priority 2014, published 2018).

Columns and labels:
[1] = test system: colorectal cancer patients with hepatic metastases; assay: MARACON-001 phase I trial, Maraviroc monotherapy; format: in vivo, human; conditions: for Objective response (RECIST)/ other responses: Patient 4, colorectal cancer (metastatic: lung and liver), monotherapy
From the text: Clinical trial. A trial in colorectal cancer patients with hepatic metastases was initiated. […] In the trial, patients receive Maraviroc daily for two months. Safety and feasibility are the primary endpoints of this ongoing trial. The trial is being conducted according to the Declaration of Helsinki and relevant International Conference on Harmonization Good Clinical Practice guidelines and with approval from the ethics committee of the University of Heidelberg. […] All provided written informed consent before participating in this study. The overall workflow of the trial is depicted in FIG. 2.
Assessment of proliferation in histology samples. Briefly cryo sections were fixed with 4% paraformaldehyde (PFA, Sigma Aldrich, Germany). The sections were blocked with 10% normal goat serum (Vector, USA). […] The slides were incubated with a secondary antibody (rabbit-anti-mouse IgG, Bond Polymer Refine Detection System, Leica, Germany) for 8 minutes at room temperature. Further amplification of the signal was achieved through incubation with a third antibody, conjugated with horse radish peroxidase and coupled to dextrane molecules in large numbers, for 8 minutes at room temperature (Poly-HRP-mouse-anti-rabbit IgG, Bond Polymer Refine Detection System, Leica, Germany). The antigen detection was performed by a color reaction with 3,3-di-amino-benzidine (DAB chromogen, Bond Polymer Refine Detection System, Leica, Germany). The sections were counterstained with hematoxylin (Bond Polymer Refine Detection System, Leica, Germany) and mounted with Aquatex (Merck, Germany). Assessment was performed with the Visiomorph Software Package (Visiopharm, Denmark) to quantify positive tumor cells.

[2] = test system: colorectal cancer liver metastases; assay: Tumor explant model from freshly resected colorectal cancer liver metastases; format: cell-based, human; conditions: FIG. 1
From the text: Tumor explant models. Tumor explant models were generated from freshly resected colorectal cancer liver metastases. Explanted tissue specimens were cut into three equal parts, placed in unconditioned medium and either treated with DMSO or Maraviroc (in DMSO) or without any addition. The explants were then harvested and subjected to histological analyses (see FIG. 1) and multiplex protein analysis (see FIG. 3).

SMILES: Cc1nnc(C(C)C)n1[C@@H]1C[C@H]2CC[C@@H](C1)N2CC[C@H](NC(=O)C1CCC(F)(F)CC1)c1ccccc1 [Maraviroc, 4,4-difluoro-N-{(1S)-3-[3-(3-isopropyl-5-methyl-4H-1,2,4-triazol-4-yl)-8-azabicyclo[3.2.1]oct-8-yl]-1-phenylpropyl}cyclohexanecarboxamide]
- tumor cell death in patients (biopsies) ([1]; Maraviroc 300 mg/bid, second biopsy after 8-10 days): tumor cell death
- Objective response (RECIST)/ other responses ([1]; liver): −10% (liver)
- Objective response (RECIST)/ other responses ([1]; lung): −50% (lung),
- radiologically measured area of necrosis of liver metastases ([1]; before vs after therapy, percentage of necrotic area of reference lesion, FIG. 5): increase in necrotic area
- proliferation activity (Ki67 percentage) of tumor cells ([1]; before vs under treatment (8-10 days, second biopsy), FIG. 4): Reductions
- key cytokines for tumor growth, chemotherapy resistance or angiogenesis ([1]; day 0 (pretreatment) vs day 9 of treatment, FIG. 3): Marked Changes
- tolerability ([1]; patients): well-tolerated
- side effects ([1]; patients, so far): does not have significant side effects
- tumor cell death upon inhibition of CCR5 ([2]; explants treated with Maraviroc (in DMSO)): clear tumor cell death
- effects in the adjacent liver ([2]; explants treated with Maraviroc): no effects
- histology of treated section (hemalaun counterstaining) ([2]; treated section vs untreated control section): Large areas of necrosis and only few remaining tumor cells
